Laboratory results as given in US5250539A, “Hexahydrobenzo[f]quinolinones” (priority 1991, dated 1993).

target: T1, 5α-Reductase (Homo sapiens, UniProt P18405); experiment: Inhibition of 5α-reductase in Hs68 human genital skin fibroblasts (conversion of labelled testosterone, TLC); format: cell-based; conditions: 1.0 μM test compound; Hs68 cells; 12 μM testosterone; 4 h; read-out: % Inhibition
T1 construct: host or cells: Hs68 human genital skin fibroblasts
T1 sequence (P18405 1-259): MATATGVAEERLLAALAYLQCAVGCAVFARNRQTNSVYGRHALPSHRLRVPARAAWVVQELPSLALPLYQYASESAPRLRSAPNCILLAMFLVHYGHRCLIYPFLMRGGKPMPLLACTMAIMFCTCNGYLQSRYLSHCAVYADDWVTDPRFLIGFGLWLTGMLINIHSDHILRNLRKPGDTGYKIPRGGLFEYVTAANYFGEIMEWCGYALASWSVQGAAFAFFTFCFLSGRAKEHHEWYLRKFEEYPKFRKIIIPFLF
Description: Cell Culture: 5α-Reductase activity was measured using Hs68 human genital skin fibroblasts which were originally purchased from the American Type Culture Collection (Rockville, Md.). The cells were grown in Dulbecco's Modified Eagle's Medium (DMEM) plus 10% stripped fetal bovine serum which was supplemented with amphotericin B (0.25 μg/ml) and gentamicin (25.0 μg/ml) (GIBCO, Grand Island, N.Y.). The serum was stripped of endogenous steroids by incubation with dextran-coated charcoal prior to its addition to the media. The cells were maintained at 37° C. in an atmosphere of 95% air, 5% CO2 and were passaged every 7-10 days by exposure to a trypsin-EDTA solution (0.025% trypsin, 0.265 mM EDTA). Prior to the assay the Hs68 cells were harvested and plated in Falcon 6-well plates (Becton Dickinson Labware, Lincoln Park, N.J.) at a density of 6×10^4 cells per well. The cells were allowed to grow for 4-5 days or until they reached approximately 80% confluence.
Assay Method I: The substrate was prepared by dissolving unlabeled testosterone (Sigma Chemical Co., St. Louis, Mo.) in absolute ethanol followed by the addition of [7-^3 H (N)]-testosterone (23.3 Ci/mmole, New England Nuclear, Boston, Mass.). The steroid solution was taken to dryness under a stream of nitrogen and then reconstituted in media.
Assay Method II: The substrate used for this method was [^14 C]-testosterone (50 mCi/mmol) (New England Nuclear, Boston, Mass.). An aliquot of the substrate was taken to dryness under a stream of nitrogen. After the addition of 30 μl of ethanol, the testosterone was brought up in an appropriate volume of media.
Sample Preparation: The test compounds were dissolved in absolute ethanol in order to achieve the desired concentration. Subsequent dilutions of the test compounds with media were performed by the Biomek 1000 Automated Laboratory Workstation (Beckman Instruments, Palo Alto, Calif.). The existing media in the sample wells was aspirated and replaced with fresh media. Test compound was then added to the wells followed by the addition of 0.5 ml of the substrate. The volume of the incubation mixture was maintained at 2.0 ml. The final substrate concentration was 12 μM. The concentration of the test compounds ranged from 0.001-15 μM. An additional three wells (background) containing media and substrate but no cells were also included to account for the non-enzymatic metabolism of the substrate. The plates were returned to the incubator and incubated for four hours.
At the end of the incubation the media was collected and transferred to an extraction tube containing 5 ml of tolueneethanol (9:1), to which has been added 40-250 μg each of unlabeled carrier steroids (estriol, estradiol, estrone, 5α-androstan-3α,17β-diol, 5α-androstan-3β,17β-diol, 4-androstene-3,17-dione, 5α-androstan-3,17-dione, testosterone, and 5α-dihydrotestosterone) (Steraloids, Inc. Wilton, N.H.). In the case of Assay Method I the extraction tube also contained 1,000 and 10,000 dpm of [4-^14 C]-dihydrotesterone (50-60 mCi/mmol) and [4-^14 C]-testosterone (50 mCi/mmol) (New England Nuclear, Boston, Mass.), respectively. The [^14 C]-steroids were included as recovery standards to quantify procedural losses. A small amount of NaCl was also added to the extraction tubes to prevent foaming. The samples were vortexed for approximately 30 seconds and then centrifuged for 10 minutes at 500×g. The organic phase was collected and the samples taken to dryness, redissolved in dichloromethane-methanol (9:1) and were analyzed by thin layer chromatography using one of the methods described below.

| Compound | inhibition at 1 µM |
| --- | --- |
| CN1C(=O)CCC2=C1CCc1ccccc12 [Example 7, 4-methyl-1,2,3,4,5,6,-hexahydrobenzo[f]quinolin-3-one] | 48% |
| O=C1CCC2=C(CCc3cc(Cl)ccc32)N1 [Example 10, 8-chloro-1,2,3,4,5,6-hexahydrobenzo[f]quinolin-3-one] | 81% |
| COc1ccc2c(c1)CCC1=C2CCC(=O)N1 [Example 11, 8-methoxy-1,2,3,4,5,6-hexahydrobenzo[f]quinolin-3-one] | 20% |
| O=C1CCC2=C(CCc3cccc(Br)c32)N1 [Example 16, 10-bromo-1,2,3,4,5,6-hexahydrobenzo[f]quinolin-3-one] | 14% |
| O=C1CCC2=C(CCc3cccc(Cl)c32)N1 [Example 17, 10-chloro-1,2,3,4,5,6-hexahydrobenzo[f]quinolin-3-one] | 0.3% |
| O=C1CCC2=C(CCc3c(F)cccc32)N1 [Example 18, 7-fluoro-1,2,3,4,5,6-hexahydrobenzo[f]quinolin-3-one] | 36% |
| CN1C(=O)CCC2=C1CCc1c(F)cccc12 [Example 19, 7-fluoro-4-methyl-1,2,3,4,5,6-hexahydrobenzo[f]quinolin-3-one] | 61% |
| CN1C(=O)CCC2=C1CCc1ccc(F)cc12 [Example 21, 9-fluoro-4-methyl-1,2,3,4,5,6-hexahydrobenzo[f]quinolin-3-one] | 60% |
| CN1C(=O)CCC2=C1CCc1cccc(F)c12 [Example 22, 10-fluoro-4-methyl-1,2,3,4,5,6-hexahydrobenzo[f]quinolin-3-one] | 35% |
| O=C1CCC2=C(CCc3cc(F)ccc32)N1Cc1ccccc1 [Example 23, 8-fluoro-4-benzyl-1,2,3,4,5,6-hexahydrobenzo[f]quinolin-3-one] | 37% |
| CCN1C(=O)CCC2=C1CCc1cc(F)ccc12 [Example 24, 8-fluoro-4-ethyl-1,2,3,4,5,6-hexahydrobenzo[f]quinolin-3-one] | 31% |
| COc1ccc2c(c1)C1=C(CC2)NC(=O)CC1 [Example 26, 9-methoxy-1,2,3,4,5,6-hexahydrobenzo[f]quinolin-3-one] | 12% |
| COc1cccc2c1C1=C(CC2)NC(=O)CC1 [Example 27, 10-methoxy-1,2,3,4,5,6-hexahydrobenzo[f]quinolin-3-one] | 0% |
| COc1cc2c(cc1OC)C1=C(CC2)NC(=O)CC1 [Example 28, 8,9-dimethoxy-1,2,3,4,5,6-hexahydrobenzo[f]quinolin-3-one] | 33% |
| Cc1cccc2c1C1=C(CC2)NC(=O)CC1 [Example 29, 10-methyl-1,2,3,4,5,6-hexahydrobenzo[f]quinolin-3-one] | 41% |

same assay, conditions: Hs68

| Compound | inhibition at 1 µM |
| --- | --- |
| O=C1CCC2=C(CCc3cccc(F)c32)N1 [Example 20, 10-fluoro-1,2,3,4,5,6-hexahydrobenzo[f]quinolin-3-one] | 22% |
